Test results as given in patent US7935359B2, “Use of L 2-thiohistidine or one of its derivatives as a depigmenting agent in cosmetics” (LVMH Recherche, priority 2006, dated 2011).

System: melanocytes of separated mammary epidermis
Assay: Depigmenting activity on separated epidermis incubated with L-DOPA/active principle solution, optical microscopy and counting of melanin grains
Format: cell-based, human
Settings: for depigmenting activity: separated epidermis, L-DOPA; for grains of melanin counted, Mean: mean of 3 tests
Procedure: In this Example a quantitative comparative test is carried out on a separated epidermis in order to show the depigmenting activity of L-2-thiohistidine compared with various depigmenting agents known in the prior art, especially kojic acid or ergothioneine, and also compared with a control sample comprising DOPA oxidase.
The procedure of this test is similar to that described in Example II of the LVMH RECHERCHE document FR-A-2,867,384 published on 16 Sep. 2005, to which those skilled in the art may usefully refer and which is incorporated by reference.
Frozen mammary epidermis originating from plastic surgery on a person, reference P148AB39, are separated by incubation in 2N NaBr for 1 h 45 min at 37° C. They were fixed in a formalized fixative, buffered, rinsed and brought into contact with a volume/volume mixture of L-DOPA/active principle solution. After incubation, they were rinsed and mounted between slides and cover slips with mounting medium.
The epidermis were observed by optical microscopy with a magnification of 10.
The depigmenting activity which can be seen in FIGS. 1 to 5 was quantified statistically by counting the grains of melanin over a series of 3 tests. The values are shown in the Table below, in which the values obtained for the Student test are specified for ergothioneine versus L-2-thiohistidine and for kojic acid versus L-2-thiohistidine at the same concentration. The Student test is said to be significant if the value obtained is less than 0.05. Conclusions

| SMILES | grains of melanin counted, Test 1 (50 μg) | grains of melanin counted, Test 2 (50 μg) | grains of melanin counted, Test 3 (50 μg) | depigmenting activity (50 μg/ml) [%] | grains of melanin counted, Mean (50 μg) | grains of melanin counted, Test 1 (150 μg) | grains of melanin counted, Test 2 (150 μg) | grains of melanin counted, Test 3 (150 μg) | depigmenting activity compared with reference agents (in words) (150 μg/ml, versus kojic acid) | depigmenting activity (150 μg/ml) [%] | grains of melanin counted, Mean (150 μg) | depigmenting activity compared with reference agents (in words) (comparable concentration, versus ergothioneine) |
| --- | --- | --- | --- | --- | --- | --- | --- | --- | --- | --- | --- | --- |
| NC(Cc1c[nH]c(=S)[nH]1)C(=O)O [L-2-thiohistidine, alpha-amino-2,3-dihydro-2-thioxo-1H-imidazole-4-propanoic acid] | 162 | 178 | 176 | 60 | 172 | 102 | 115 | 116 | very good depigmenting activity similar to that of the previously known kojic acid | 75 | 111 | better depigmenting activity than ergothioneine |
| C[N+](C)(C)[C@@H](Cc1c[nH]c(=S)[nH]1)C(=O)[O-] [ergothioneine, reference compound] | 194 | 210 | 190 | ~45 | 198 | – | – | – | – | – | – | – |
| O=c1cc(CO)occ1O [kojic acid, reference compound] | – | – | – | – | – | 124 | 137 | 138 | – | ~75 | 133 | – |
